SMILES strings stand for the structures.

The target in the test is c-kit mutant D816V (Homo sapiens (Human), UniProt P10721, D816V/DEL694-753). Description: c-Kit mutant D816V biochemical assay (AlphaScreen kinase activity). In a few lines: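 AlphaScreen with streptavidin donor and PY30 acceptor beads read phosphotyrosine on biotin-(E4Y)10 substrate (30 nM). Enzyme: E. coli-expressed N-His c-Kit D816V, residues 551-934 lacking kinase insert 694-753. Reaction 30 min at room temperature, 10 μM ATP, 5% DMSO; IC50 fitted over 8 three-fold dilutions.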
Chain of c-kit mutant D816V (P10721 other isoform, or with tags, fused parts or gaps D816V/del 694-753): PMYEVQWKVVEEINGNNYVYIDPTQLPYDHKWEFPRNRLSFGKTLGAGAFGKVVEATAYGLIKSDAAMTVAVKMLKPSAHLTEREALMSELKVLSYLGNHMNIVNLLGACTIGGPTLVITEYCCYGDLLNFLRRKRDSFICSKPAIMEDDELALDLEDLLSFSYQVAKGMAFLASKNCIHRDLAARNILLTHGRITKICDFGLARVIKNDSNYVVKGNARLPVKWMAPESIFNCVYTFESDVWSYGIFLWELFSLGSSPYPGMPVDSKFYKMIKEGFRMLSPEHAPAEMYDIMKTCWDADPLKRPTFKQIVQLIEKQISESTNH
Background: In Alpha technology, singlet oxygen from a donor bead excites a nearby acceptor bead.
The IC50 is the point on the concentration scale where inhibition reaches its midpoint. A high value points to weaker potency in that assay. As to `CCc1ccc(-c2[nH]c(C3CCN(c4ncnc5[nH]c(-c6ccc(F)cc6)cc45)CC3)nc2C)cc1` [P-3060, 4-[4-[5-(4-ethylphenyl)-4-methyl-1H-imidazol-2-yl]-1-piperidyl]-6-(4-fluorophenyl)-7H-pyrrolo[2,3-d]pyrimidine], the 50% inhibitory concentration (IC50) fell in the range of 0.0001 to 1 µM.
As to `CCc1ccc(-c2[nH]c(C3CCN(c4ncnc5[nH]c(-c6ccc(C#N)cc6)cc45)CC3)nc2C)cc1` [P-3061, 4-[4-[4-[5-(4-ethylphenyl)-4-methyl-1H-imidazol-2-yl]-1-piperidyl]-7H-pyrrolo[2,3-d]pyrimidin-6-yl]benzonitrile], the concentration for half-maximal inhibition (IC50) was 0.0001 to 1 µM.
For `Cc1ccc(-c2[nH]c(C3CCN(c4ncnc5[nH]c(-c6ccc(F)cc6)cc45)CC3)nc2C)cc1` [P-3062, 6-(4-fluorophenyl)-4-[4-[4-methyl-5-(p-tolyl)-1H-imidazol-2-yl]-1-piperidyl]-7H-pyrrolo[2,3-d]pyrimidine], the IC50 lay within 0.0001 to 1 µM.
`COc1ccc(-c2[nH]c(C3(C)CCN(c4ncnc5[nH]c(C)cc45)CC3)nc2C)cc1` [P-3063, 4-[4-[5-(4-methoxyphenyl)-4-methyl-1H-imidazol-2-yl]-4-methyl-1-piperidyl]-6-methyl-7H-pyrrolo[2,3-d]pyrimidine] gave an IC50 of 0.0001 to 1 µM.
In the case of `Cc1cc2c(N3CCC(C)(c4nc(C)c(-c5ccc(F)cc5)[nH]4)CC3)ncnc2[nH]1` [P-3064, 4-[4-[5-(4-fluorophenyl)-4-methyl-1H-imidazol-2-yl]-4-methyl-1-piperidyl]-6-methyl-7H-pyrrolo[2,3-d]pyrimidine], the 50% inhibitory concentration (IC50) was in the range of 0.0001 to 1 µM.
The compound `CCOc1ccc(-c2[nH]c(C3CCN(c4ncnc5[nH]c(-c6ccc(F)cc6)cc45)CC3)nc2C)cc1C` [P-3065, 4-[4-[5-(4-ethoxy-3-methyl-phenyl)-4-methyl-1H-imidazol-2-yl]-1-piperidyl]-6-(4-fluorophenyl)-7H-pyrrolo[2,3-d]pyrimidine] gave a half-inhibitory concentration (IC50) of 0.0001 to 1 µM.
Under `CCOc1ccc(-c2[nH]c(C3CCN(c4ncnc5[nH]c(-c6ccc(C#N)cc6)cc45)CC3)nc2C)cc1C` [P-3066, 4-[4-[4-[5-(4-ethoxy-3-methyl-phenyl)-4-methyl-1H-imidazol-2-yl]-1-piperidyl]-7H-pyrrolo[2,3-d]pyrimidin-6-yl]benzonitrile] stands 0.0001 to 1 µM; under `CCOc1ccc(-c2[nH]c(C3CCN(c4ncnc5[nH]c(-c6ccnc(OC)c6)cc45)CC3)nc2C)cc1C` [P-3067, 4-[4-[5-(4-ethoxy-3-methyl-phenyl)-4-methyl-1H-imidazol-2-yl]-1-piperidyl]-6-(2-methoxy-4-pyridyl)-7H-pyrrolo[2,3-d]pyrimidine], 0.0001 to 1 µM.
Compound `Cc1nc(C2CCN(c3ncnc4[nH]c(-c5ccc(F)cc5)cc34)CC2)[nH]c1-c1ccc2c(c1)OCO2` [P-3068, 4-[4-[5-(1,3-benzodioxol-5-yl)-4-methyl-1H-imidazol-2-yl]-1-piperidyl]-6-(4-fluorophenyl)-7H-pyrrolo[2,3-d]pyrimidine] yielded a half-maximal inhibitory concentration (IC50) of 0.0001 to 1 µM.
Compound `Cc1nc(C2CCN(c3ncnc4[nH]c(-c5ccc(C#N)cc5)cc34)CC2)[nH]c1-c1ccc2c(c1)OCO2` [P-3069, 4-[4-[4-[5-(1,3-benzodioxol-5-yl)-4-methyl-1H-imidazol-2-yl]-1-piperidyl]-7H-pyrrolo[2,3-d]pyrimidin-6-yl]benzonitrile] came in with an IC50 of 0.0001 to 1 µM.
`COc1cc(-c2cc3c(N4CCC(c5nc(C)c(-c6ccc7c(c6)OCO7)[nH]5)CC4)ncnc3[nH]2)ccn1` [P-3070, 4-[4-[5-(1,3-benzodioxol-5-yl)-4-methyl-1H-imidazol-2-yl]-1-piperidyl]-6-(2-methoxy-4-pyridyl)-7H-pyrrolo[2,3-d]pyrimidine]: the 50% inhibitory concentration (IC50) was 0.0001 to 1 µM.
The compound `CC(=O)Nc1cccc(-c2cc3c(N4CCC(c5nc(C)c(-c6ccccc6)[nH]5)CC4)ncnc3[nH]2)c1` [P-3071, N-[3-[4-[4-(4-methyl-5-phenyl-1H-imidazol-2-yl)-1-piperidyl]-7H-pyrrolo[2,3-d]pyrimidin-6-yl]phenyl]acetamide] returned an IC50 of 0.0001 to 1 µM.
Take `COc1ccc(-c2cc3c(N4CCC(c5nc(C)c(-c6ccccc6)[nH]5)CC4)ncnc3[nH]2)cn1` [P-3072, 6-(6-methoxy-3-pyridyl)-4-[4-(4-methyl-5-phenyl-1H-imidazol-2-yl)-1-piperidyl]-7H-pyrrolo[2,3-d]pyrimidine]: the concentration for half-maximal inhibition (IC50) was 0.0001 to 1 µM.
Take `Cc1nn(C)cc1-c1cc2c(N3CCC(c4nc(C)c(-c5ccccc5)[nH]4)CC3)ncnc2[nH]1` [P-3073, 6-(1,3-dimethylpyrazol-4-yl)-4-[4-(4-methyl-5-phenyl-1H-imidazol-2-yl)-1-piperidyl]-7H-pyrrolo[2,3-d]pyrimidine]: the half-inhibitory concentration (IC50) lay in the range of 0.0001 to 1 µM.
`Cc1ccc(-c2cc3c(N4CCC(c5nc(C)c(-c6ccccc6)[nH]5)CC4)ncnc3[nH]2)cn1` [P-3074, 4-[4-(4-methyl-5-phenyl-1H-imidazol-2-yl)-1-piperidyl]-6-(6-methyl-3-pyridyl)-7H-pyrrolo[2,3-d]pyrimidine] returned an IC50 of 0.0001 to 1 µM.
Under `CCOc1cc(-c2cc3c(N4CCC(c5nc(C)c(-c6ccccc6)[nH]5)CC4)ncnc3[nH]2)ccn1` [P-3075, 6-(2-ethoxy-4-pyridyl)-4-[4-(4-methyl-5-phenyl-1H-imidazol-2-yl)-1-piperidyl]-7H-pyrrolo[2,3-d]pyrimidine] stands 0.0001 to 1 µM.
In the case of `Cc1nc(C2CCN(c3ncnc4[nH]c(-c5ccnc(N6CCOCC6)c5)cc34)CC2)[nH]c1-c1ccccc1` [P-3076, 4-[4-[4-[4-(4-methyl-5-phenyl-1H-imidazol-2-yl)-1-piperidyl]-7H-pyrrolo[2,3-d]pyrimidin-6-yl]-2-pyridyl]morpholine], the IC50 is 0.0001 to 1 µM.
As for `Cc1nc(C2CCN(c3ncnc4[nH]c(-c5ccnc(N6CCC(C)CC6)c5)cc34)CC2)[nH]c1-c1ccccc1` [P-3077, 4-[4-(4-methyl-5-phenyl-1H-imidazol-2-yl)-1-piperidyl]-6-[2-(4-methyl-1-piperidyl)-4-pyridyl]-7H-pyrrolo[2,3-d]pyrimidine], the figure is 0.0001 to 1 µM.
The compound `Cc1nc(C2CCN(c3ncnc4[nH]c(-c5ccnc(OC(C)C)c5)cc34)CC2)[nH]c1-c1ccccc1` [P-3078, 6-(2-isopropoxy-4-pyridyl)-4-[4-(4-methyl-5-phenyl-1H-imidazol-2-yl)-1-piperidyl]-7H-pyrrolo[2,3-d]pyrimidine] showed an IC50 of 0.0001 to 1 µM.
Compound `Cc1nc(C2CCN(c3ncnc4[nH]c(-c5ccnc(N6CCCC6)c5)cc34)CC2)[nH]c1-c1ccccc1` [P-3079, 4-[4-(4-methyl-5-phenyl-1H-imidazol-2-yl)-1-piperidyl]-6-(2-pyrrolidin-1-yl-4-pyridyl)-7H-pyrrolo[2,3-d]pyrimidine] displayed a half-maximal inhibitory concentration (IC50) of 0.0001 to 1 µM.
As for `Cc1nc(C2CCN(c3ncnc4[nH]c(-c5cccc(OC(F)(F)F)c5)cc34)CC2)[nH]c1-c1ccccc1` [P-3080, 4-[4-(4-methyl-5-phenyl-1H-imidazol-2-yl)-1-piperidyl]-6-[3-(trifluoromethoxy)phenyl]-7H-pyrrolo[2,3-d]pyrimidine], the figure is 0.0001 to 1 µM; as for `Cc1nc(C2CCN(c3ncnc4[nH]c(-c5cccc(F)c5)cc34)CC2)[nH]c1-c1ccccc1` [P-3081, 6-(3-fluorophenyl)-4-[4-(4-methyl-5-phenyl-1H-imidazol-2-yl)-1-piperidyl]-7H-pyrrolo[2,3-d]pyrimidine], 0.0001 to 1 µM.
`Cc1nc(C2CCN(c3ncnc4[nH]c(-c5cccc(NS(C)(=O)=O)c5)cc34)CC2)[nH]c1-c1ccccc1` [P-3083, N-[3-[4-[4-(4-methyl-5-phenyl-1H-imidazol-2-yl)-1-piperidyl]-7H-pyrrolo[2,3-d]pyrimidin-6-yl]phenyl]methane sulfonamide]: the IC50 lay in the range of 0.0001 to 1 µM.
In turn, `Cc1nc(C2CCN(c3ncnc4[nH]c(-c5ccc(F)cc5)cc34)CC2)[nH]c1-c1ccc2c(c1)OCCO2` [P-3084, 4-[4-[5-(2,3-dihydro-1,4-benzodioxin-6-yl)-4-methyl-1H-imidazol-2-yl]-1-piperidyl]-6-(4-fluorophenyl)-7H-pyrrolo[2,3-d]pyrimidine] registered a half-inhibitory concentration (IC50) of 0.0001 to 1 µM.
`Cc1nc(C2CCN(c3ncnc4[nH]c(-c5ccc(F)cc5)cc34)CC2)[nH]c1-c1ccc(OC(F)(F)F)cc1` [P-3085, 6-(4-fluorophenyl)-4-[4-[4-methyl-5-[4-(trifluoromethoxy)phenyl]-1H-imidazol-2-yl]-1-piperidyl]-7H-pyrrolo[2,3-d]pyrimidine] showed a 50% inhibitory concentration (IC50) of 0.0001 to 1 µM.
`Cc1nc(C2CCN(c3ncnc4[nH]c(-c5ccc(C#N)cc5)cc34)CC2)[nH]c1-c1ccc(OC(F)(F)F)cc1` [P-3086, 4-[4-[4-[4-methyl-5-[4-(trifluoromethoxy)phenyl]-1H-imidazol-2-yl]-1-piperidyl]-7H-pyrrolo[2,3-d]pyrimidin-6-yl]benzonitrile] displayed an IC50 of 0.0001 to 1 µM.
Compound `COc1cc(-c2cc3c(N4CCC(c5nc(C)c(-c6ccc(OC(F)(F)F)cc6)[nH]5)CC4)ncnc3[nH]2)ccn1` [P-3087, 6-(2-methoxy-4-pyridyl)-4-[4-[4-methyl-5-[4-(trifluoromethoxy)phenyl]-1H-imidazol-2-yl]-1-piperidyl]-7H-pyrrolo[2,3-d]pyrimidine] gave an IC50 of 0.0001 to 1 µM.
Compound `COc1cc(-c2cc3c(N4CCC(c5nc(C)c(-c6ccc(C)cc6)[nH]5)CC4)ncnc3[nH]2)ccn1` [P-3088, 6-(2-methoxy-4-pyridyl)-4-[4-[4-methyl-5-(p-tolyl)-1H-imidazol-2-yl]-1-piperidyl]-7H-pyrrolo[2,3-d]pyrimidine] showed an IC50 of 0.0001 to 1 µM.
Take `COc1ccc(-c2[nH]c(C3(C)CCN(c4ncnc5[nH]c(-c6ccc(C#N)nc6)cc45)CC3)nc2C)cc1C` [P-3250, 5-[4-[4-[5-(4-methoxy-3-methyl-phenyl)-4-methyl-1H-imidazol-2-yl]-4-methyl-1-piperidyl]-7H-pyrrolo[2,3-d]pyrimidin-6-yl]pyridine-2-carbonitrile]: the IC50 was in the range of 0.0001 to 1 µM.
With `CCOc1ccc(-c2[nH]c(C3(C)CCN(c4ncnc5[nH]c(-c6ccc(C#N)nc6)cc45)CC3)nc2C)cc1` [P-3251, 5-[4-[4-[5-(4-ethoxyphenyl)-4-methyl-1H-imidazol-2-yl]-4-methyl-1-piperidyl]-7H-pyrrolo[2,3-d]pyrimidin-6-yl]pyridine-2-carbonitrile], the IC50 was 0.0001 to 1 µM.

(Values after patent publication US9771369B2, “Compounds and methods for kinase modulation, and indications therefor” (Plexxikon Inc., priority 2014, dated 2017).)
